One data set relates to THP-1 cells. Briefly: THP-1 cells: secreted VEGF protein by ELISA. The format is cell-based, human. The protocol: THP-1 cells were obtained from the American Type Culture Collection (ATCC# TIB202), and grown in Iscove's medium supplemented with 10% fetal bovine serum and 2 mM L-glutamine. For experiments, THP-1 cells were cultured at 5×10^5 cells/ml in 24-well plates, treated and allowed to incubate for various times at 37° C. Conditioned media and cells were then collected, and cells removed by centrifugation at 500 g for 5 min. Media were stored at −80° C. until assayed.
VEGF protein was quantified in an ELISA kit purchased from R & D Systems (Minneapolis, Minn.). The lower limit of sensitivity of the assay was 10 pg/ml.
Because macrophages are the inflammatory cells predominantly responsible for the angiogenic response that occurs during healing, a monocyte/macrophage cell line shown previously to bind relaxin with high affinity (THP-1) (Parsell et al. (1996) J. Biol. Chem. 271:27936-27941) was tested for relaxin inducibility of VEGF and bFGF. THP-1 cells were cultured in vitro, treated with relaxin (100 ng/ml) for 3 hours, and assayed for VEGF and bFGF mRNA induction. […] In order to determine whether the increase in VEGF mRNA observed following short-term relaxin treatment was reflected by an elevation in secreted VEGF protein, THP-1 cells were treated with relaxin (0.01-100 ng/ml) for 24 h, the conditioned media collected, and VEGF content in the media quantified by ELISA. […]
For orientation: ELISA stands for enzyme-linked immunosorbent assay.

The next data set relates to female rats. Briefly: rhRLX for 5 days in female rats with infusion of ETB receptor antagonist RES-701-1 or its vehicle. The class given is in vivo, rat. The protocol: After surgical recovery, an osmotic minipump (model 2ML1, Alza Co., Palo Alto Calif.) containing either recombinant human relaxin (rhRLX; n=9 rats) or vehicle (n=8) was implanted subcutaneously on the back using light ether anesthesia. The infusion rate of rhRLX was 4 μg/hour. Experiments were conducted on day 5 of rhRLX or vehicle administration. MAP and renal function were measured as described above.
The technique of urine collection was again reliable. After reaching steady-state, the excretion rates of IN and PAH at baseline were 99±3 and 100±2% of their respective infusions for the rats administered rhRLX, and 100±2 and 99±2% for those given vehicle. Following the determination of baseline MAP and renal function, an infusion of RES-701-1, a selective endothelin type B (ETB) receptor antagonist (Conrad et al. (1999) Am. J. Physiol. 272:F767-F776; and Tanaka et al. (1994) Mol. Pharmacol. 45:724-730), was started at a rate of 10 μg/minute (flow rate 12 μl/minute) through the venous catheter. […] At the end of the experiment, 1.0 ml of blood was collected for determination of serum rhRLX.
In an additional three rats each administered rhRLX or vehicle, identical experimental procedures as described above were applied, except that the vehicle for RES-701-1 was infused instead of RES-701-1.

Data set [1] relates to ovariectomized or sham ovariectomized rats. Briefly: Chronic infusion of rhRLX on renal function in ovariectomized or sham ovariectomized rats. The class given is in vivo, rat. The settings on record: day 5 of infusion 4 μg/hour; comparable in ovariectomized and sham ovariectomized rats. An excerpt:
The details of the surgical procedures have been previously described. See, e.g., Conrad (1984) Kidney Int. 26:24-29; and Danielson and Conrad (1995) J. Clin. Invest. 96:482-490. […] The bladder catheter, a silastic-covered stainless steel cannula, was sewn into the urinary bladder with a purse-string suture and exteriorized through the ventral abdominal wall. This catheter was then plugged allowing the animal to urinate through the urethra while in her home cage. In the ovariectomized and sham ovariectomized animals, the ovaries were first ligated and then excised, or briefly manipulated, respectively, via a small incision made in the lateral abdominal wall immediately after the insertion of vascular and bladder catheters. All surgeries were conducted using aseptic technique. At least a 7-day recovery period was allowed before experimentation.
Six female rats each were subjected either to ovariectomy or sham ovariectomy immediately after the implantation of vascular and bladder catheters. Seven days later, renal function and MAP were assessed before the insertion of osmotic minipumps containing rhRLX. On day 5 of the relaxin infusion (4 μg/hour), renal function and MAP were again determined.

A short description of data set [2]: Serum rhRLX, quantitative sandwich immunoassay (Example 1). The class given is in vivo, rat. The settings on record: osmotic minipump 4 μg/hour for 5 days, 17 rats, mean±SEM. The protocol:
One milliliter of blood was obtained from the rats administered rhRLX for 5 days at the end of the renal function measurements. The levels of rhRLX in serum were then measured in a quantitative sandwich immunoassay. Unemori et al. (1996) J. Clin. Invest. 98:2739-2745. Briefly, wells of a 96-well microtiter plate (Maxisorp Immunomodules, Nunc, Inc., Naperville, Ill.) were coated overnight with affinity purified anti-rhRLX rabbit polyclonal antibody. Sera were diluted in phosphate buffered saline containing Tween 20, Thimerosal, bovine serum albumin (Sigma Chemical Co., St. Louis, Mo.) and normal goat IgG (Organon Teknika-Cappel, Durham, N.C.), and 100 μl were added to wells in duplicate. […] After an appropriate incubation period at room temperature, the wells were washed again, and 100 μl of a tetramethylbenzidine solution was added to each well. After color development, the reaction was stopped, absorbances at 450/630 nm were measured, and relaxin concentrations in the sera were determined by entering data into a four-parameter logistic curve-fitting program.

The mark [3] stands for this setting: rhRLX day 5, V, vehicle for RES-701-1.

For the substance “rhRLX: recombinant human relaxin, identical in amino acid sequence to the product of the human H2 gene; A chain of 24, B chain of 29 amino acids”, the VEGF protein secretion entry with THP-1 cells (0.01-100 ng/ml for 24 h, dose-dependent) is “approximately 150%”. In addition, in the data set with THP-1 cells (24 h), the “threshold relaxin concentration required for stimulation of VEGF protein secretion” value is 0.2 to 1.0 ng/mL. In the data set with female rats (rhRLX day 5, B, baseline), this substance returned an ERPF of 11220, an ERVR of 6.67, a GFR of 3082 and an MAP of 112 ± 7. In the data set on female rats (setting [3]), this substance returned an ERPF of 10464, an ERVR of 6.97, a GFR of 3112 and an MAP of 115 ± 8. In the data set on female rats (rhRLX for 5 days (FIG. 4)), the “ERPF at baseline compared to vehicle infusion” value is reported as “significantly increased”, the “ERVR reduction at baseline compared to vehicle infusion” value is recorded as 20-30%, the “GFR at baseline compared to vehicle infusion” value is recorded as “significantly increased” and the “MAP at baseline compared to vehicle infusion” value is listed as “not significantly affected”. For the same substance, in data set [1], the “effect on ERPF” value is on record as “profound rise”, the “effect on ERVR” value was “fall” and the “effect on GFR” value was “profound rise”. Also, in data set [2], the “serum concentration of rhRLX” value came to 28.1 ± 4.8 ng/mL.

Values taken from patent US6723702B2, “Use of relaxin treat diseases related to vasoconstriction” (RAS Medical, Inc., priority 2000, dated 2004).
